Measured values taken from patent US20220235006A1, “PYRIDINE DERIVATIVES AS TMEM16A MODULATORS FOR USE IN THE TREATMENT OF RESPIRATORY CONDITIONS” (TMEM16A LIMITED, priority 2019, published 2022).

Assays:
[1] = Log D (pH7.4 shake flask); assay type: physicochemical; details: pH 7.4; 1-octanol/phosphate buffer shake flask; read-out: mLogD (pH 7.4)
[2] = Caco-2 permeability assay; assay type: in vitro ADME; details: human, Caco-2, pH 7.4; for efflux ratio at 2 h, 10 μM: B-A/A-B; for Papp B→A at 2 h, 10 μM: basolateral to apical, pH7.4
Procedure: Caco2 permeability data provides a measure of a compound's permeability, and its potential for efflux by P-glycoprotein. […] This assay therefore provides an indication of which compounds are likely to be suitable for oral administration.
Caco-2 cells were purchased from ATCC and passaged to create a bank of cells. Cells were not used post 20 passages.
All test and reference compounds (metoprolol (passive permeability) and atenolol (pgp substrate)) were formulated in DMSO to 20 mM.
96-well plates were seeded with 9×10^3 Caco-2 cells/well in DMEM, 10% FBS, 1% NEAA, 1% pen/strep and maintained at 37° C., in a highly humidified atmosphere of 95% air and 5% CO2. Plates were ready for use on day 21.
10 mM DMSO stock test compounds were diluted to 1 mM in DMSO. Two replicates of each test compound were included in every assay. Final concentration of donor solution was 10 μM.
Assay transport buffer (25 mM HEPES/Hanks Balanced Salt Solution (HBSS), pH7.4) was prepared to wash the cells, create lucifer yellow (LY) stock solutions, receiver solutions and blanks for the transport assay. Final concentration of LY was 10 μM. Basolateral wells were treated with 250 μL of 10 μM dosing drug solution or 250 μL Transport Buffer. Apical wells were treated with 75 μL drug dosing solution or 75 μL Transport Buffer. The two plates were sandwiched together and cells were incubated with test compounds for 2 hours, shaking at 50 rpm, 37° C., 0% CO2.
A calibration curve was prepared for each compound; DMSO stock solutions were serially diluted from 300 μM to 100 μM, 30 μM, 10 μM, 3 μM, 1 μM and 0.3 μM in DMSO. 2 μL of each concentration was diluted into 198 μL of Sample Quench Solution (50% acetonitrile containing 500 nM tolbutamide). 50 μL of each calibration solution was then diluted in 50 μL Dosing Buffer (modified HBSS containing LY). Finally this plate was diluted 1:10 using a Janus robot in Robot Dilution Quench Solution (35% acetonitrile containing 250 nM tolbutamide).
Following a 2 h incubation, 50 μL of sample was removed from each well (apical and basolateral) and added to the T2 sample plate. Lucifer Yellow fluorescence was analysed using Spectrafluor Plus featuring the XFluor software to determine membrane integrity.
Following the fluorescence plate read, 50 μL Sample Quench Solution was then added to the T2 sample plate. Plates were diluted 1:10 and/or 1:100 into opaque 384-well plates using a Janus Robot. 1:100 dilution transfers were created sequentially directly from 1:10 dilutions. All dilutions were created using Robot Dilution Quench Solution (35% acetonitrile containing 250 nM tolbutamide). All samples were analysed by LC-MS/MS.

[3] = tested on: Cryopreserved hepatocytes (human); assay: Hepatic stability (cryopreserved hepatocytes); assay type: in vitro ADME; details: 1 μM
Procedure: Cryopreserved hepatocytes (human) were obtained from Bioreclamation.
Test compounds and reference controls (raloxifene, diclofenac, terenadine, propranolol, dextromethorphan and metoprolol) were dissolved in a 100 μM stock was prepared by diluting 5 μL of 4 mM (DMSO) in 195 μL of 50:50 DMSO:hepatocyte buffer. Final test compound concentration in incubation was 1 μM.
The hepatocyte buffer was prepared (Williams E media containing phenol red and Glutamax™, 15 mM HEPES, warmed to 37° C., pH7.4 with NaOH). Hepatocyte cells (all main species) were removed from liquid nitrogen, thawed in a waterbath, decanted into 50 mL of pre-warmed Cryopreserved Hepatocyte Recovery Media (LifeTechnologies) and centrifuged. Supernatant fraction was removed, cells were re-suspended in hepatocyte buffer and counted by trypan blue exclusion. Cell viability of >80% was required for all assays.
2 μL of 100 μM compound stock solution was added to relevant wells to initiate the incubation. A no cell control and two replicates of each test compound was included in every assay. Cells were incubated at 37° C., on a shaker set at 300 rpm. […] Samples were diluted 1:1 with water using the Janus Robot and analysed by LC-MS/MS.

[4] = Microsomal stability; assay type: in vitro ADME; details: human microsomes 0.5 mg/mL; 1 μM; 1 mM NADPH
Procedure: Microsomes (human) were obtained from Bioreclamation.
All Test and reference control compounds (raloxifene, diclofenac, terfenadine, propranolol, dextromethorphan and metoprolol) were dissolved to create a 100 μM stock (final concentrations; 91.5% Acetonitrile: 8.5% DMSO). Final test compound concentration in incubation was 1 μM (<0.1% DMSO).
Solution 1: 17.4 g potassium phosphate dibasic anhydrous (K2HPO4, 0.1 M) dissolved in 1 L deionised water. Solution 2: 13.6 g potassium phosphate monobasic anhydrous (KH2PO4, 0.1 M) dissolved in 1 L deionised water. pH7.4 with 2 mM magnesium chloride. NADPH (10 mM) is prepared in deionised water.
Microsomes (all species) were removed from the −80° C. thawed at 37° C. Microsomes were diluted in assay buffer to achieve a final protein concentration of 0.5 mg/mL and 1 mM NADPH.
The following procedure was completed on a Perkin Elmer Janus robotic platform in 96 well format: The microsomal incubation plate was transferred to a heater shaker at 300 rpm and solution heated to 37° C. for 10 min pre-warm. A no co-factor control at 0 and 45 min and one replicates of each test compound was included in every assay. Microsomes were incubated at 37° C., on a shaker set at 300 rpm throughout the assay. […] Samples were diluted 1:1 with water using the Janus Robot and analysed by […]

[5] = Parallel artificial membrane permeability assay (PAMPA); assay type: in vitro ADME; details: 200 μM, 16 hours
Procedure: Parallel artificial membrane permeability assay (PAMPA) permeability data is a useful tool to predict passive permeability through biological lipid membranes. […] Passive permeability (>0.1 and <10×10^−6 cm/s) may still give good absorption properties.
All Test compounds were formulated in DMSO to 20 mM. Final concentration of all compounds in the assay was 200 μM with final DMSO concentration of 1%. The following reference controls were used: Antipyrine, Carbamazepine, Propranolol, Ranitidine and Ketoprofen.
The solutions were filtered and 150 μL transferred to a High Sensitivity 96 well UV plate. This was analysed by UV as the reference plate. A 200 μL sample of the 200 μM solution was transferred to the ‘donor’ plate of the PAMPA plon sandwich plate system. […] Donor and acceptor plates were sandwiched and kept in a humid environment at room temperature for 16 hours. On completion of the incubation the donor and acceptor plates were separated. 150 μL of solution was transferred from each of the donor and acceptor PAMPA sandwich plates into High Sensitivity 96 well UV plates for analysis by UV. Passive permeability (Pe 10^−6 cm/second) was determined for each compound tested. Control compounds were compared with historic and literature values to ensure assay functionality.

Q: What does the source list for `CC(C)(CO)c1cc(Cl)c(CC(=O)Nc2ccnc(C(=O)NC3(C(F)(F)F)CC3)c2)cc1O` [Example 14, 4-[[2-[2-Chloro-5-hydroxy-4-(2-hydroxy-1,1-dimethyl-ethyl)phenyl]acetyl]amino]-N-[1-(trifluoromethyl)cyclopropyl]pyridine-2-carboxamide]?
A: logD [1]: 3.9; efflux ratio at 2 h, 10 μM [2]: 2.8; Papp B→A at 2 h, 10 μM [2]: 4.9 ×10⁻⁶ cm/s

Q: Which results are given for `CC(C)(C#N)NC(=O)c1cc(NC(=O)Cc2ccc(C(C)(C)C)c(O)c2)ccn1` [93.4 of PCT/GB2019/050209, reference compound]?
A: Human Hepatocyte CIint [3]: 24.1 μL/min/million cells; logD [1]: > 4.1; Human Microsome CIint [4]: 32.8 µL/min/mg; PAMPA Pe (pH 5.0) ([5]; pH 5.0): 30.9 ×10^−4 cm/s; PAMPA Pe (pH 6.2) ([5]; pH 6.2): 38.4 ×10^−4 cm/s; PAMPA Pe (pH 7.4) ([5]; pH 7.4): 36.4 ×10^−4 cm/s

Q: For `Cc1cc(C(C)(C)CO)c(O)cc1CC(=O)Nc1ccnc(C(=O)NC2(C(F)(F)F)CC2)c1` [Example 14.1, 4-[[2-[5-Hydroxy-4-(2-hydroxy-1,1-dimethyl-ethyl)-2-methyl-phenyl]acetyl]amino]-N-[1-(trifluoromethyl)cyclopropyl]pyridine-2-carboxamide], which logD [1] is on record?
A: 3.4

Q: And the efflux ratio at 2 h, 10 μM [2]?
A: 2.8

Q: What about the Papp B→A at 2 h, 10 μM [2] of the same compound?
A: 6 ×10⁻⁶ cm/s

Q: Which logD [1] does the source give for `CC(C)(O)c1cc(F)c(CC(=O)Nc2ccnc(C(=O)NC3(C(F)(F)F)CC3)c2)cc1O` [Example 2, 4-[[2-[2-Fluoro-5-hydroxy-4-(1-hydroxy-1-methyl-ethyl)phenyl]acetyl]amino]-N-[1-(trifluoromethyl)cyclopropyl]pyridine-2-carboxamide] here?
A: 3.1

Q: What about the efflux ratio at 2 h, 10 μM [2] of the same compound?
A: 1.8

Q: And the Papp B→A at 2 h, 10 μM [2]?
A: 5.7 ×10⁻⁶ cm/s

Q: With `CC(C)(CCO)c1cc(F)c(CC(=O)Nc2ccnc(C(=O)NC3(C(F)(F)F)CC3)c2)cc1O` [Example 11, 4-[[2-[2-Fluoro-5-hydroxy-4-(3-hydroxy-1,1-dimethyl-propyl)phenyl]acetyl]amino]-N-[1-(trifluoromethyl)cyclopropyl]pyridine-2-carboxamide] as the compound, how does the logD [1] read?
A: 3.7

Q: What about the efflux ratio at 2 h, 10 μM [2] of the same compound?
A: 2.3

Q: And the Papp B→A at 2 h, 10 μM [2]?
A: 5.5 ×10⁻⁶ cm/s

Q: For `CC(C#N)NC(=O)c1cc(NC(=O)Cc2cc(O)c(C(C)(C)C)cc2F)ccn1` (centres unmarked) [Example 1.3], which logD [1] is on record?
A: 3.9

Q: And the efflux ratio at 2 h, 10 μM [2]?
A: 0.9

Q: What about the Papp B→A at 2 h, 10 μM [2] of the same compound?
A: 2.5 ×10⁻⁶ cm/s

Q: For `CC(C)(CO)c1cc(Cl)c(CC(=O)Nc2ccnc(C(=O)NC3(C(F)F)CC3)c2)cc1O` [Example 15.3, 4-[[2-[2-Chloro-5-hydroxy-4-(2-hydroxy-1,1-dimethyl-ethyl)phenyl]acetyl]amino]-N-[1-(difluoromethyl)cyclopropyl]pyridine-2-carboxamide], which logD [1] is on record?
A: 3.4

Q: What about the efflux ratio at 2 h, 10 μM [2] of the same compound?
A: 19.8

Q: And the Papp B→A at 2 h, 10 μM [2]?
A: 7.2 ×10⁻⁶ cm/s

Q: Which logD [1] does the source give for `CC(C)(CO)c1cc(F)c(CC(=O)Nc2ccnc(C(=O)NC3(C(F)(F)F)CC3)c2)cc1O` [Example 2.6, 4-[[2-[2-Fluoro-5-hydroxy-4-(2-hydroxy-1,1-dimethyl-ethyl)phenyl]acetyl]amino]-N-[1-(trifluoromethyl)cyclopropyl]pyridine-2-carboxamide] here?
A: 3.2

Q: What about the efflux ratio at 2 h, 10 μM [2] of the same compound?
A: 2.4

Q: What about the Papp B→A at 2 h, 10 μM [2] of the same compound?
A: 5.3 ×10⁻⁶ cm/s

Q: Which logD [1] does the source give for `O=C(Cc1cc(O)c(C2(CO)CCC2)cc1F)Nc1ccnc(C(=O)NC2(C(F)(F)F)CC2)c1` [Example 2.13, 4-[[2-[2-Fluoro-5-hydroxy-4-[1-(hydroxymethyl)cyclobutyl]phenyl]acetyl]amino]-N-[1-(trifluoromethyl)cyclopropyl]pyridine-2-carboxamide] here?
A: 3.3

Q: What about the efflux ratio at 2 h, 10 μM [2] of the same compound?
A: 2.6

Q: And the Papp B→A at 2 h, 10 μM [2]?
A: 6.1 ×10⁻⁶ cm/s

Q: With `O=C(Cc1cc(O)c(C(CO)C(F)(F)F)cc1F)Nc1ccnc(C(=O)NC2(C(F)(F)F)CC2)c1` (centres unmarked) [Example 17, 4-[[2-[2-Fluoro-5-hydroxy-4-[2,2,2-trifluoro-1-(hydroxymethyl)ethyl]phenyl]acetyl]amino]N-[1-(trifluoromethyl)cyclopropyl]pyridine-2-carboxamide] as the compound, how does the logD [1] read?
A: 3.3

Q: And the efflux ratio at 2 h, 10 μM [2]?
A: 20.7

Q: And the Papp B→A at 2 h, 10 μM [2]?
A: 7.8 ×10⁻⁶ cm/s

Q: Which “Human Hepatocyte CIint” value [3] does the source give for `CC(C)(C)NC(=O)c1cc(NC(=O)Cc2cc(O)c(C(C)(C)C)cc2F)ccn1` [91 of PCT/GB2019/050209, reference compound] here?
A: 15.6 μL/min/million cells

Q: And the logD [1]?
A: > 4.5

Q: What about the “Human Microsome CIint” value [4] of the same compound?
A: 51.0 µL/min/mg

Q: Which logD [1] does the source give for `CCC(C)(O)c1cc(F)c(CC(=O)Nc2ccnc(C(=O)NC3(C(F)(F)F)CC3)c2)cc1O` (centres unmarked) [Example 2.11, 4-[[2-[2-Fluoro-5-hydroxy-4-(1-hydroxy-1-methyl-propyl)phenyl]acetyl]amino]-N-[1-(trifluoromethyl)cyclopropyl]pyridine-2-carboxamide] here?
A: 3.6

Q: And the efflux ratio at 2 h, 10 μM [2]?
A: 1
